Measured values: patent publication US11352344B2, “Antagonists of the muscarinic acetylcholine receptor M4” (Vanderbilt University, priority 2017, dated 2022)

Assays:
mice = test: haloperidol-induced catalepsy, a model of parkinsonian motor disability; type: in vivo
Excerpt: Furthermore, haloperidol-induced catalepsy, a model of parkinsonian motor disability, is reduced in M4 knockout mice as compared to wild-type controls. […] The reversal by scopolamine was uncommonly robust and more pronounced than we observe with agents targeting a number of other targets being evaluated for potential antiparkinsonian effects, including metabotropic glutamate (mGlu) receptors mGlu4 or mGlu5, A2A adenosine receptors, and NMDA receptors. […] Taken together with the extensive studies of M4 modulation of basal ganglia and motor function, these studies provide compelling evidence that M4 is the dominant mAChR subtype involved in the antiparkinsonian effects of non-selective mAChR antagonists and provide support for discovery and development of selective M4 antagonists for treatment of neurodegenerative disease such as PD, dystonia, tardive dyskinesia and other movement disorders.

M4 knockout mice = conditions: but not the other four mAChR subtypes (M1-3,5); cited from earlier work
Human M4 = biological target: T1, Human M4 (Homo sapiens, UniProt P08173); test: mAChR M4 cell-based functional assay (calcium flux, antagonism of EC80 acetylcholine response); conditions: for remaining activity at 30 µM: % ACh maximum at 30 μM, human M4, read-out: Emin; for IC50: M4/Gqi5/CHO-K1 cells, decrease of response to EC80 acetylcholine
T1 construct: expressed in transfected cells; host or cells: CHO-K1 (Chinese hamster ovary) cells, stably co-transfected with Gqi5
T1 sequence (P08173 1-479): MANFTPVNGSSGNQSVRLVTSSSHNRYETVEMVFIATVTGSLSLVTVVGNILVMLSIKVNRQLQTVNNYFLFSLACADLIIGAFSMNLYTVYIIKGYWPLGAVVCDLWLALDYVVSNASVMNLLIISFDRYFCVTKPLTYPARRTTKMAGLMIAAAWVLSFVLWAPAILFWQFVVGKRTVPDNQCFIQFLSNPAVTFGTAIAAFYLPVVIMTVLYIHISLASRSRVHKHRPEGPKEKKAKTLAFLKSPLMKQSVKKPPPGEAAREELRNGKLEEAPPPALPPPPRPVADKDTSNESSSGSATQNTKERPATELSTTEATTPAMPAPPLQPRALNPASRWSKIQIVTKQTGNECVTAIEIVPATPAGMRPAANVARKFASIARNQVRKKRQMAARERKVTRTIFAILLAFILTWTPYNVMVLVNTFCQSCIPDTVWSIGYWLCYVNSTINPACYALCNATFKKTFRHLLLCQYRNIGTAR
Procedure: Human or rat M4 cDNA, along with the chimeric G protein Gqi5, were transfected into Chinese hamster ovary (CHO-K1) cells purchased from the American Type Culture Collection using Lipofectamine2000. M4/Gqi5/CHO cells were grown in Ham's F-12 medium containing 10% heat-inactivated fetal bovine serum (FBS), 20 mM HEPES, 500 μg/mL G418 sulfate, and 200 μg/mL Hygromycin B.
For high throughput measurement of agonist-evoked increases in intracellular calcium, CHO-K1 cells stably expressing muscarinic receptors were plated in growth medium lacking G418 and hygromycin at 15,000 cells/20 μL/well in Greiner 384-well black-walled, tissue culture (TC)-treated, clear-bottom plates (VWR). Cells were incubated overnight at 37° C. and 5% CO2. The next day, cells were washed using an ELX 405 (BioTek) with assay buffer; the final volume was then aspirated to 20 μL. Next, 20 μL of a 2.3 μM stock of Fluo-4/acetoxymethyl ester (Invitrogen, Carlsbad, Calif.), prepared as a 2.3 mM stock in DMSO and mixed in a 1:1 ratio with 10% (w/v) Pluronic F-127 and diluted in assay buffer, was added to the wells and the cell plates were incubated for 50 min at 37° C. and 5% CO2. Dye was removed by washing with the ELX 405 and the final volume was aspirated to 20 μL. Compound master plates were formatted in a 10 point concentration-response curve (CRC) format (1:3 dilutions) in 100% DMSO with a starting concentration of 10 or 1 mM using a BRAVO liquid handler (Agilent). Test compound CRCs were then transferred to daughter plates (240 nL) using the Echo acoustic plate reformatter (Labcyte, Sunnyvale, Calif.) and then diluted into assay buffer (40 μL) to a 2× stock using a Thermo Fisher Combi (Thermo Fisher Scientific, Waltham, Mass.).
Calcium flux was measured using the Functional Drug Screening System (FDSS) 6000 or 7000 (Hamamatsu Corporation, Tokyo, Japan) as an increase in the fluorescent static ratio. Compounds were applied to cells (20 μL, 2×) using the automated system of the FDSS at 2 seconds into the protocol and the data were collected at 1 Hz. At 143 s, 10 μL of an EC20 concentration of the muscarinic receptor agonist acetylcholine was added (5×), followed by the addition of 12 μL of an EC80 concentration of acetylcholine at the 268 s time point (5×). Agonist activity was analyzed as a concentration-dependent increase in calcium mobilization upon compound addition. Positive allosteric modulator activity was analyzed as a concentration-dependent increase in the EC20 acetylcholine response. Antagonist activity was analyzed as a concentration-dependent decrease in the EC80 acetylcholine response; for the purposes of the tables herein, an IC50 (inhibitory concentration 50) was calculated as a concentration-dependent decrease of the response elicited by an EC80 concentration of acetylcholine. Concentration-response curves were generated using a four-parameter logistical equation in XLFit curve fitting software (IDBS, Bridgewater, N.J.) for Excel (Microsoft, Redmond, Wash.) or Prism (GraphPad Software, Inc., San Diego, Calif.) or the Dotmatics software platform (Dotmatics, Bishop's Stortford, UK).
Compounds were synthesized as described above. Activity (IC50 and Emin) was determined in the mAChR M4 cell-based functional assay as described above and the data are shown in Table 5. The compound numbers correspond to the compound numbers used in Examples 1-4 and Tables 1-4.

remaining activity at 30 µM (Human M4) [%] | IC50 (Human M4) [nM] | Structure (SMILES) | reducing catalepsy induced by haloperidol (mice; M4 KO mice) | reversal of catalepsy induced by haloperidol (mice; WT mice) | locomotor-activating effects (M4 knockout mice)
– | – | CN1[C@@H]2C[C@@H](OC(=O)[C@H](CO)c3ccccc3)C[C@H]1[C@@H]1O[C@@H]12 [scopolamine] | ineffective | completely reversed | dramatically reduced
5.19 | 55 | Cc1cnn(C)c1-c1ccc(NCC2CCC3CN(CC4CC5C=CC4C5)CC23)nn1 (stereo not drawn) [Compound 21, N-[[2-(5-bicyclo[2.2.1]hept-2-enylmethyl)-3,3a,4,5,6,6a-hexahydro-1H-cyclopenta[c]pyrrol-4-yl]methyl]-6-(2,4-dimethylpyrazol-3-yl)pyridazin-3-amine] | – | – | –
7.73 | 1780 | Cc1cccnc1CN1CC2CCC(CCNc3ccc(-c4c(C)cnn4C)nn3)C2C1 (stereo not drawn) [Compound 14, 6-(2,4-dimethylpyrazol-3-yl)-N-[2-[2-[(3-methyl-2-pyridyl)methyl]-3,3a,4,5,6,6a-hexahydro-1H-cyclopenta[c]pyrrol-4-yl]ethyl]pyridazin-3-amine] | – | – | –
22.6 | > 10000 | Cc1cnn(C)c1-c1ccc(NCC2CCC3CN(CC4CCCOC4)CC23)nn1 (stereo not drawn) [Compound 24, 6-(2,4-dimethylpyrazol-3-yl)-N-[[2-(tetrahydropyran-3-ylmethyl)-3,3a,4,5,6,6a-hexahydro-1H-cyclopenta[c]pyrrol-4-yl]methyl]pyridazin-3-amine] | – | – | –
4.47 | 130 | Cc1cnn(C)c1-c1ccc(NCCC2CCC3CN(CCC(C)(C)C)CC23)nn1 (stereo not drawn) [Compound 10, N-[2-[2-(3,3-Dimethylbutyl)-3,3a,4,5,6,6a-hexahydro-1H-cyclopenta[c]pyrrol-4-yl]ethyl]-6-(2,4-dimethylpyrazol-3-yl)pyridazin-3-amine] | – | – | –
4.4 | 53 | Cc1cnn(C)c1-c1ccc(NCC2CCC3CN(CC45CC6CC(CC(C6)C4)C5)CC23)nn1 (stereo not drawn) [Compound 20, N-[[2-(1-adamantylmethyl)-3,3a,4,5,6,6a-hexahydro-1H-cyclopenta[c]pyrrol-4-yl]methyl]-6-(2,4-dimethylpyrazol-3-yl)pyridazin-3-amine] | – | – | –
5.4 | 1050 | Cc1cnn(C)c1-c1ccc(NCCC2CCC3CN(CCCc4ccccc4)CC23)nn1 (stereo not drawn) [Compound 17, 6-(2,4-dimethylpyrazol-3-yl)-N-[2-[2-(3-phenylpropyl)-3,3a,4,5,6,6a-hexahydro-1H-cyclopenta[c]pyrrol-4-yl]ethyl]pyridazin-3-amine] | – | – | –
